Reference: patent US8349880B2, “Bicyclic compounds for the reduction of beta-amyloid production” (Bristol-Myers Squibb Company, priority 2009, dated 2013)

These compounds were tested on Aβ1-42 production (assay: Cellular assay for inhibition of Aβ1-42 production (H4 APP751 SWE clone 8.20)). Details: 19 h, H4 APP751 SWE clone 8.20 cells, 19 h incubation; read-out: Activity Rating (Aβ42 cellular IC50, given as a number).
Assay type: cell-based
Description: Cellular assays for inhibition of Aβ1-40 and Aβ1-42 production
H4 cells stably transfected with APP751 containing the Swedish mutation (H4 APP751 SWE clone 8.20, developed at BMS) were maintained in log phase through twice weekly passage at a 1:20 split. For IC50 determinations, 30 μl cells (1.5×10^4 cells/well) in DMEM media containing 0.0125% BSA (Sigma A8412) were plated directly into 384-well compound plates (Costar 3709) containing 0.1 μl serially diluted compound in DMSO. Following incubation for 19 h in 5% CO2 at 37° C., plates were briefly centrifuged (1000 rpm, 5 min). A 10 μl aliquot from each well was transferred to a second assay plate (Costar 3709) for Aβ40 measurements. Antibody cocktails were freshly prepared by dilution into 40 mM Tris-HCl (pH 7.4) with 0.2% BSA and added to assay plates. For Aβ42 measurements, antibodies specific for the Aβ42 neoepitope (565, developed at BMS; conjugated to the Wallac reagent (Perkin Elmer)) and the N-terminal sequence of Aβ peptide (26D6, developed at SIBIA; conjugated to APC (Perkin Elmer)) were mixed and 20 μl of the mixture was added to each well of the incubated cell plate yielding a final concentration of 0.8 ng/well 565 and 75 ng/well 26D6. For the Aβ40 measurements, antibodies specific for the Aβ40 neoepitope (TSD, developed at BMS; conjugated to the Wallac reagent (Perkin Elmer)) and 26D6 as described above were mixed and 20 μl of the mixture was added to the 10 μl aliquots which had been removed previously from the cell plate yielding a final concentration of 1.6 ng/well TSD and 17.5 ng/well 26D6. Assay plates containing antibodies were sealed with aluminum foil and incubated overnight at 4° C. Signal was determined using a Viewlux counter (Perkin Elmer) and IC50 values determined using curve fitting in CurveMaster (Excel Fit based).
COc1cc(Nc2nc3n(n2)CC=CCC3(C)C)ccc1-n1cnc(Cl)c1 [Example 9, (Z)—N-(4-(4-chloro-1H-imidazol-1-yl)-3-methoxyphenyl)-9,9-dimethyl-8,9-dihydro-5H-[1,2,4]triazolo[1,5-a]azepin-2-amine 2,2,2-trifluoroacetate] was tested, and the IC50 was 110 nM.
With Cc1ncn(-c2ccc(Nc3nc4n(n3)CCCC4c3ccc(F)cc3)cc2C#N)n1 (centres unmarked) [Example 11, 5-(8-(4-fluorophenyl)-5,6,7,8-tetrahydro-[1,2,4]triazolo[1,5-a]pyridin-2-ylamino)-2-(3-methyl-1H-1,2,4-triazol-1-yl)benzonitrile, 2,2,2-trifluoroacetate] the IC50 was 110 nM.
COc1cc(Nc2nc3n(n2)CCCC3c2ccc(Cl)cc2Cl)ccc1-n1cnc(Cl)c1 (centres unmarked) [Example 12, N-(4-(4-chloro-1H-imidazol-1-yl)-3-methoxyphenyl)-8-(2,4-dichlorophenyl)-5,6,7,8-tetrahydro-[1,2,4]triazolo[1,5-a]pyridin-2-amine] was tested, and the IC50 was 8 nM.
Work on COc1cc(Nc2nc3n(n2)CCCCC3c2ccc(F)cc2)ccc1-n1cnc(Cl)n1 (centres unmarked) [Example 33, N-(4-(3-chloro-1H-1,2,4-triazol-1-yl)-3-methoxyphenyl)-9-(4-fluorophenyl)-6,7,8,9-tetrahydro-5H-[1,2,4]triazolo[1,5-a]azepin-2-amine 2,2,2-trifluoroacetate] yielded an IC50 of 9 nM.

Same assay, conditions: 19 h, H4 APP751 SWE clone 8.20 cells, 19 h incubation; read-out: Activity Rating (based on Aβ42 cellular IC50 values)
COc1cc(Nc2nc3n(n2)CCCC[C@H]3c2ccc(OCC(F)F)cc2)ccc1-n1cnc(Cl)c1 (single isomer, unassigned) [Example 162] gave an IC50 of 10 to 100 nM.
Compound COc1cc(Nc2nc3n(n2)CCCC[C@@H]3c2ccc(OCC(F)F)cc2)ccc1-n1cnc(Cl)c1 (single isomer, unassigned) [Example 163] has an IC50 of 10 to 100 nM.
Cc1ncn(-c2ccc(Nc3nc4n(n3)CCCC[C@H]4c3ccc(OC(F)(F)F)c(F)c3)cc2F)n1 (single isomer, unassigned) [Example 165] was tested, and the IC50 was 10 to 100 nM.
In the case of Cc1ncn(-c2ccc(Nc3nc4n(n3)CCCC[C@@H]4c3ccc(OC(F)(F)F)c(F)c3)cc2F)n1 (single isomer, unassigned) [Example 166], the IC50 is reported as < 10 nM.
For COc1cc(Nc2nc3n(n2)CCCC[C@H]3c2ccc(OC(F)(F)F)cc2)cc(F)c1-n1cnc(C)n1 (single isomer, unassigned) [Example 168], the IC50 was 10 to 100 nM.
COc1cc(Nc2nc3n(n2)CCCC[C@@H]3c2ccc(OC(F)(F)F)cc2)cc(F)c1-n1cnc(C)n1 (single isomer, unassigned) [Example 169] gave an IC50 of 100 to 1000 nM.
For COc1cc(Nc2nc3n(n2)CCCC[C@H]3c2ccc(OC(F)(F)F)cc2)c(F)cc1-n1cnc(C)n1 (single isomer, unassigned) [Example 176], the IC50 was < 10 nM.
In the case of COc1cc(Nc2nc3n(n2)CCCC[C@@H]3c2ccc(OC(F)(F)F)cc2)c(F)cc1-n1cnc(C)n1 (single isomer, unassigned) [Example 177], the IC50 is reported as 10 to 100 nM.
For COc1cc(Nc2nc3n(n2)CC=CCC3c2ccc(F)cc2)ccc1-n1cnc(Cl)c1 (centres unmarked) [Example 1, (Z)—N-(4-(4-chloro-1H-imidazol-1-yl)-3-methoxyphenyl)-9-(4-fluorophenyl)-8,9-dihydro-5H-[1,2,4]triazolo[1,5-a]azepin-2-amine], the IC50 was < 10 nM.
COc1cc(Nc2nc3n(n2)CC=CCC3c2ccc(F)cc2)ccc1-n1cnc(C)n1 (centres unmarked) [Example 4, (Z)-9-(4-fluorophenyl)-N-(3-methoxy-4-(3-methyl-1H-1,2,4-triazol-1-yl)phenyl)-8,9-dihydro-5H-[1,2,4]triazolo[1,5-a]azepin-2-amine] gave an IC50 of 10 to 100 nM.
COc1cc(Nc2nc3n(n2)CCCCC3c2ccc(F)cc2)ccc1-n1cnc(C)n1 (centres unmarked) [Example 7, 9-(4-fluorophenyl)-N-(3-methoxy-4-(3-methyl-1H-1,2,4-triazol-1-yl)phenyl)-6,7,8,9-tetrahydro-5H-[1,2,4]triazolo[1,5-a]azepin-2-amine 2,2,2-trifluoroacetate] was tested, and the IC50 was 10 to 100 nM.
With COc1cc(Nc2nc3n(n2)CC=CCC3c2ccc(Cl)cc2Cl)ccc1-n1cnc(Cl)c1 (centres unmarked) [Example 8, (Z)—N-(4-(4-chloro-1H-imidazol-1-yl)-3-methoxyphenyl)-9-(2,4-dichlorophenyl)-8,9-dihydro-5H-[1,2,4]triazolo[1,5-a]azepin-2-amine] the IC50 was 10 to 100 nM.
With COc1cc(Nc2nc3n(n2)CCCC3c2ccc(F)cc2)ccc1-n1cnc(Cl)c1 (centres unmarked) [Example 10, N-(4-(4-chloro-1H-imidazol-1-yl)-3-methoxyphenyl)-8-(4-fluorophenyl)-5,6,7,8-tetrahydro-[1,2,4]triazolo[1,5-a]pyridin-2-amine 2,2,2-trifluoroacetate] the IC50 was 10 to 100 nM.
With Cc1ncnn1-c1ccc(Nc2nc3n(n2)CCCC3c2ccc(F)cc2)cc1F (centres unmarked) [Example 13, N-(3-fluoro-4-(5-methyl-1H-1,2,4-triazol-1-yl)phenyl)-8-(4-fluorophenyl)-5,6,7,8-tetrahydro-[1,2,4]triazolo[1,5-a]pyridin-2-amine] the IC50 was 10 to 100 nM.
In the case of COc1cc(Nc2nc3n(n2)CCCCC3c2ccc(F)cc2)ccc1-n1cnc(Cl)c1 (centres unmarked) [Example 16, N-(4-(4-Chloro-1H-imidazol-1-yl)-3-methoxyphenyl)-9-(4-fluorophenyl)-6,7,8,9-tetrahydro-5H-[1,2,4]triazolo[1,5-a]azepin-2-amine], the IC50 is reported as < 10 nM.
In the case of COc1cc(Nc2nc3n(n2)CCCCC3c2ccc(Cl)cc2Cl)ccc1-n1cnc(Cl)c1 (centres unmarked) [Example 19, N-(4-(4-chloro-1H-imidazol-1-yl)-3-methoxyphenyl)-9-(2,4-dichlorophenyl)-6,7,8,9-tetrahydro-5H-[1,2,4]triazolo azepin-2-amine 2,2,2-trifluoroacetate], the IC50 is reported as < 10 nM.
COc1cc(Nc2nc3n(n2)CCCCC3c2ccc(F)c(F)c2)ccc1-n1cnc(Cl)c1 (centres unmarked) [Example 22, N-(4-(4-chloro-1H-imidazol-1-yl)-3-methoxyphenyl)-9-(3,4-difluorophenyl)-6,7,8,9-tetrahydro-5H-[1,2,4]triazolo[1,5-a]azepin-2-amine 2,2,2-trifluoroacetate] was tested, and the IC50 was < 10 nM.
Work on Cc1ncn(-c2ccc(Nc3nc4n(n3)CCCCC4c3ccc(F)cc3)cc2F)n1 (centres unmarked) [Example 25, N-(3-fluoro-4-(3-methyl-1H-1,2,4-triazol-1-yl)phenyl)-9-(4-fluorophenyl)-6,7,8,9-tetrahydro-5H-[1,2,4]triazolo[1,5-a]azepin-2-amine] yielded an IC50 of 10 to 100 nM.
Work on COc1cc(Nc2nc3n(n2)CCCCC3c2ccc(F)cc2)c(F)cc1-n1cnc(C)n1 (centres unmarked) [Example 28, N-(2-fluoro-5-methoxy-4-(3-methyl-1H-1,2,4-triazol-1-yl)phenyl)-9-(4-fluorophenyl)-6,7,8,9-tetrahydro-5H-[1,2,4]triazolo[1,5-a]azepin-2-amine 2,2,2-trifluoroacetate] yielded an IC50 of 10 to 100 nM.
Work on COc1cc(Nc2nc3n(n2)CCCC[C@H]3c2ccc(F)cc2)c(F)cc1-n1cnc(C)n1 [Example 29, (S)—N-(2-fluoro-5-methoxy-4-(3-methyl-1H-1,2,4-triazol-1-yl)phenyl)-9-(4-fluorophenyl)-6,7,8,9-tetrahydro-5H-[1,2,4]triazolo[1,5-a]azepin-2-amine] yielded an IC50 of 10 to 100 nM.
In the case of COc1cc(Nc2nc3n(n2)CCCCC3c2ccc(OC(F)(F)F)cc2)ccc1-n1cnc(Cl)c1 (centres unmarked) [Example 31, N-(4-(4-chloro-1H-imidazol-1-yl)-3-methoxyphenyl)-9-(4-(trifluoromethoxy)phenyl)-6,7,8,9-tetrahydro-5H-[1,2,4]triazolo[1,5-a]azepin-2-amine 2,2,2-trifluoroacetate], the IC50 is reported as < 10 nM.
In the case of COc1cc(Nc2nc3n(n2)CCCCC3c2ccc(Cl)cc2)ccc1-n1cnc(Cl)c1 (centres unmarked) [Example 32, N-(4-(4-chloro-1H-imidazol-1-yl)-3-methoxyphenyl)-9-(4-chlorophenyl)-6,7,8,9-tetrahydro-5H-[1,2,4]triazolo[1,5-a]azepin-2-amine 2,2,2-trifluoroacetate], the IC50 is reported as < 10 nM.
With COc1cc(Nc2nc3n(n2)CCCCC3c2ccc(Cl)cc2)ccc1-c1cnn(C)c1 (centres unmarked) [Example 34, 9-(4-chlorophenyl)-N-(3-methoxy-4-(1-methyl-1H-pyrazol-4-yl)phenyl)-6,7,8,9-tetrahydro-5H-[1,2,4]triazolo[1,5-a]azepin-2-amine 2,2,2-trifluoroacetate] the IC50 was 10 to 100 nM.
For COc1cc(Nc2nc3n(n2)CCCCC3c2ccc(F)cc2F)ccc1-n1cnc(Cl)c1 (centres unmarked) [Example 35, N-(4-(4-chloro-1H-imidazol-1-yl)-3-methoxyphenyl)-9-(2,4-difluorophenyl)-6,7,8,9-tetrahydro-5H-[1,2,4]triazolo[1,5-a]azepin-2-amine 2,2,2-trifluoroacetate], the IC50 was < 10 nM.
With COc1cc(Nc2nc3n(n2)CCCCC3c2cc(F)cc(F)c2)ccc1-n1cnc(Cl)c1 (centres unmarked) [Example 38, N-(4-(4-chloro-1H-imidazol-1-yl)-3-methoxyphenyl)-9-(3,5-difluorophenyl)-6,7,8,9-tetrahydro-5H-[1,2,4]triazolo[1,5-a]azepin-2-amine] the IC50 was < 10 nM.
